# Assay results from patent US20100298384A1, “NOVEL OXAZOLIDINONE COMPOUNDS AS ANTIINFECTIVE AGENTS” (priority 2006, published 2010).
row,melting point,SMILES
1,130 to 140 °C,CC(=O)NC[C@H]1CN(c2ccc(-n3cc(Cn4ccc(C(F)(F)F)n4)nn3)c(F)c2)C(=O)O1 [Example 32]
2,166 to 168 °C,"CC(=S)NC[C@H]1CN(c2ccc(-c3nc(Cn4cccn4)cs3)c(F)c2)C(=O)O1 [Example 62, N-{3-[3-fluoro-4-(4-pyrazole-1-ylmethyl-thiazol-2-yl)-phenyl]-2-oxo-oxazolidin-5(S)-ylmethyl}-thioacetamide]"
3,129 to 130 °C,COC(=O)NC[C@H]1CN(c2ccc(-n3cc(Cn4ccc(C(F)(F)F)n4)nn3)c(F)c2)C(=O)O1 [Example 49]
4,171 to 173 °C,"CC(=O)NC[C@H]1CN(c2ccc(-n3cnc(Cn4cncn4)c3)c(F)c2)C(=O)O1 (stereo in doubt) [Example 26, N-{3-[3-fluoro-4-(4-[1,2,4]triazol-1-ylmethyl-imidazol-1-yl)-phenyl]-2-oxo-oxazolidin-5-ylmethyl}-acetamide]"
5,180 to 182 °C,"CC(=O)NC[C@H]1CN(c2ccc(-n3cnc(Cn4ccnc4)c3)c(F)c2)C(=O)O1 (stereo in doubt) [Example 24, N-{3-[3-fluoro-4-(4-imidazol-1-ylmethyl-imidazol-1-yl)-phenyl]-2-oxo-oxazolidin-5-ylmethyl}-acetamide]"
6,158 to 160 °C,"CC(=O)NC[C@H]1CN(c2ccc(-n3cnc(Cn4cccn4)c3)c(F)c2)C(=O)O1 (stereo in doubt) [Example 26, N-{3-[3-fluoro-4-(4-pyrazol-1-ylmethyl-imidazol-1-yl)-phenyl]-2-oxo-oxazolidin-5-ylmethyl}-acetamide]"
7,169 to 171 °C,"COC(=S)NC[C@H]1CN(c2ccc(-c3nc(Cn4ccnc4)cs3)c(F)c2)C(=O)O1 [Example 51, O-methyl {3-[3-fluoro-4-(4-imidazol-1-ylmethyl-thiazol-2-yl)-phenyl]-2-oxo-oxazolidin-5(S)-ylmethyl}-thiocarbamate]"
8,180 to 182 °C,"CC(=S)NC[C@H]1CN(c2ccc(-c3nc(Cn4cncn4)cs3)c(F)c2)C(=O)O1 [Example 61, N-{3-[3-fluoro-4-(4-[1,2,4]triazol-1-ylmethyl-thiazol-2-yl)-phenyl]-2-oxo-oxazolidin-5(S)-ylmethyl}-thioacetamide]"
9,126 to 127 °C,"CC(=O)NC[C@H]1CN(c2ccc(-n3cc(Cn4cncn4)cn3)c(F)c2)C(=O)O1 [Example 22, N-{3-[3-fluoro-4-(4-[1,2,4]triazol-1-ylmethyl-pyrazol-1-yl)-phenyl]-2-oxo-oxazolidin-5(S)-ylmethyl}-acetamide]"
10,192 to 194 °C,"CC(=O)NC[C@H]1CN(c2ccc(-c3nc(Cn4ccnc4)cs3)c(F)c2)C(=O)O1 [Example 10, N-{3-[3-fluoro-4-(4-imidazol-1-ylmethyl-thiazol-2-yl)-phenyl]-2-oxo-oxazolidin-5(S)-ylmethyl}-acetamide]"
11,160 to 162 °C,"CC(=S)NC[C@H]1CN(c2ccc(-n3cnc(Cn4ccnc4)c3)c(F)c2)C(=O)O1 (stereo in doubt) [Example 65, N-{3-[3-fluoro-4-(4-imidazol-1-ylmethyl-imidazol-1-yl)-phenyl]-2-oxo-oxazolidin-5-ylmethyl}-thioacetamide]"
12,169 to 171 °C,"CC(=S)NC[C@H]1CN(c2ccc(-c3nc(Cn4ccnc4)cs3)c(F)c2)C(=O)O1 [Example 60, N-{3-[3-fluoro-4-(4-imidazol-1-ylmethyl-thiazol-2-yl)-phenyl]-2-oxo-oxazolidin-5(S)-ylmethyl}-thioacetamide]"
13,165 to 167 °C,COC(=O)NC[C@H]1CN(c2ccc(-c3nc(Cn4ccnc4)cs3)c(F)c2)C(=O)O1 [Example 33]
14,171 to 172 °C,"CC(=O)NC[C@H]1CN(c2ccc(-n3cc(Cn4ccnc4)cn3)c(F)c2)C(=O)O1 [Example 18, N-{3-[3-fluoro-4-(4-imidazol-1-ylmethyl-pyrazol-1-yl)phenyl]-2-oxo-oxazolidin-5-(8)-ylmethyl}-acetamide]"
15,98 to 100 °C,"CCOC(=O)c1cn(Cc2cn(-c3ccc(N4C[C@H](CNC(=O)OC)OC4=O)cc3F)nn2)nc1N (stereo in doubt) [Example 47, Ethyl 3-amino-1-(1-{2-fluoro-4-[5-(methoxycarbonylamino-methyl)-2-oxo-oxazolidin-3-yl]-phenyl}-1H-[1,2,3]triazol-4-ylmethyl)-1H-pyrazole-4-carboxylate]"
16,154 to 156 °C,"CC(=O)NC[C@H]1CN(c2ccc(-c3csc(Cn4cncn4)n3)c(F)c2)C(=O)O1 (stereo in doubt) [Example 14, N-{3-[3-fluoro-4-(2[1,2,4]triazol-1-ylmethyl-thiazol-4-yl)-phenyl]-2-oxo-oxazolidin-5-ylmethyl}-acetamide]"
17,198 to 200 °C,"CC(=O)NC[C@H]1CN(c2ccc(-c3nc(Cn4ccnc4)co3)c(F)c2)C(=O)O1 [Example 6, N-{3-[3-fluoro-4-(4-imidazol-1-ylmethyl-oxazol-2-yl)-phenyl]-2-oxo-oxazolidin-5(S)-ylmethyl}-acetamide]"
18,154 to 156 °C,"CC(=O)NC[C@H]1CN(c2ccc(-c3csc(Cn4ccnc4)n3)c(F)c2)C(=O)O1 (stereo in doubt) [Example 16, N-{3-[3-Fluoro-4-(2-imidazol-1-ylmethyl-thiazol-4-yl)-phenyl]-2-oxo-oxazolidin-5-ylmethyl}-acetamide]"
19,170 °C,COC(=O)NC[C@H]1CN(c2ccc(-n3cc(Cn4cncn4)nn3)c(F)c2)C(=O)O1 [Example 48]
20,137 to 139 °C,"CC(=S)NC[C@H]1CN(c2ccc(-n3cnc(Cn4cccn4)c3)c(F)c2)C(=O)O1 (stereo in doubt) [Example 66, N-{3-[3-fluoro-4-(4-pyrazol-1-ylmethyl-imidazol-1-yl)-phenyl]-2-oxo-oxazolidin-5-ylmethyl}-thioacetamide]"
21,189 to 191 °C,"COC(=S)NC[C@H]1CN(c2ccc(-c3nc(Cn4cncn4)cs3)c(F)c2)C(=O)O1 [Example 52, O-methyl {3-[3-fluoro-4-(4-[1,2,4]triazol-1-ylmethyl-thiazol-2-yl)-phenyl]-2-oxo-oxazolidin-5(S)-ylmethyl}-thiocarbamate]"
22,157 to 158 °C,"COC(=S)NC[C@H]1CN(c2ccc(-c3nc(Cn4cccn4)cs3)c(F)c2)C(=O)O1 [Example 53, O-methyl {3-[3-fluoro-4-(4-pyrazol-1-ylmethyl-thiazol-2-yl)-phenyl]-2-oxo-oxazolidin-5(S)-ylmethyl}-thiocarbamate]"
23,179 to 180 °C,COC(=S)NC[C@H]1CN(c2ccc(-n3cc(Cn4ccc(C(F)(F)F)n4)nn3)c(F)c2)C(=O)O1 [Example 59]
24,186 to 187 °C,"CC(=O)NC[C@H]1CN(c2ccc(-n3cc(Cn4cccn4)cn3)c(F)c2)C(=O)O1 [Example 20, N-{3-[3-fluoro-4-(4-pyrazol-1-ylmethyl-pyrazol-1-yl)-phenyl]-2-oxo-oxazolidin-5-(S)-ylmethyl}-acetamide]"
25,78 to 80 °C,"COC(=O)NC[C@H]1CN(c2ccc(-n3cnc(Cn4ccnc4)c3)c(F)c2)C(=O)O1 (stereo in doubt) [Example 43, Methyl {3-[3-fluoro-4-(4-imidazol-1-ylmethyl-imidazol-1-yl)-phenyl]-2-oxo-oxazolidin-5-ylmethyl}-carbamate]"
26,142 to 144 °C,"COC(=O)NC[C@H]1CN(c2ccc(-c3nc(Cn4cccn4)cs3)c(F)c2)C(=O)O1 [Example 36, Methyl {3-[3-fluoro-4-(4-pyrazol-1-ylmethyl-thiazol-2-yl)-phenyl]-2-oxo-oxazolidin-5(S)-ylmethyl}-carbamate]"
27,178 to 180 °C,"CC(=O)NC[C@H]1CN(c2ccc(-c3nc(Cn4cccn4)cs3)c(F)c2)C(=O)O1 [Example 12, N-{3-[3-fluoro-4-(4-pyrazol-1-ylmethyl-thiazol-2-yl)-phenyl]-2-oxo-oxazolidin-5(S)-ylmethyl}-acetamide]"
28,199 to 201 °C,"COC(=O)NC[C@H]1CN(c2ccc(-c3nc(Cn4cncn4)cs3)c(F)c2)C(=O)O1 [Example 35, Methyl {3-[3-fluoro-4-(4-[1,2,4]triazol-1-ylmethyl-thiazol-2-yl)-phenyl]-2-oxo-oxazolidin-5(S)-ylmethyl}-carbamate]"

row,SMILES,melting point
1,"CC(=S)NC[C@H]1CN(c2ccc(-c3csc(Cn4cncn4)n3)c(F)c2)C(=O)O1 [Example 63, N-{3-[3-Fluoro-4-(2[1,2,4]-triazol-1-ylmethyl-thiazol-4-yl)-phenyl]-2-oxo-oxazolidin-5-ylmethyl}-thioacetamide]",82 to 84 °C
2,"CC(=O)NC[C@H]1CN(c2ccc(-c3nc(Cn4cncn4)cs3)c(F)c2)C(=O)O1 [Example 11, N-{3-[3-fluoro-4-(4-[1,2,4]triazol-1-ylmethyl-thiazol-2-yl)-phenyl]-2-oxo-oxazolidin-5(S)-ylmethyl}-acetamide]",196 to 198 °C
3,"CC(=S)NC[C@H]1CN(c2ccc(-n3cnc(Cn4cncn4)c3)c(F)c2)C(=O)O1 [Example 67, N-{3-[3-fluoro-4-(4-[1,2,4]triazol-1-ylmethyl-imidazol-1-yl)-phenyl]-2-oxo-oxazolidin-5-ylmethyl}-thioacetamide]",171 to 173 °C
4,"COC(=S)NC[C@H]1CN(c2ccc(-c3nc(Cn4cccn4)co3)c(F)c2)C(=O)O1 [Example 50, O-methyl {3-[3-fluoro-4-(4-pyrazol-1-ylmethyl-oxazol-2-yl)-phenyl]-2-oxo-oxazolidin-5(S)-ylmethyl}-thiocarbamate]",145 to 147 °C
5,"COC(=O)NC[C@H]1CN(c2ccc(-n3cnc(Cn4cncn4)c3)c(F)c2)C(=O)O1 [Example 45, Methyl {3-[3-fluoro-4-(4-[1,2,4]-triazol-1-ylmethyl-imidazol-1-yl)-phenyl]-2-oxo-oxazolidin-5-ylmethyl}-carbamate]",184 to 186 °C
6,"COC(=O)NC[C@H]1CN(c2ccc(-c3nc(Cn4cccn4)co3)c(F)c2)C(=O)O1 [Example 34, Methyl {3-[3-fluoro-4-(4-pyrazol-1-ylmethyl-oxazol-2-yl)-phenyl]-2-oxo-oxazolidin-5(S)-ylmethyl}-carbamate]",170 to 172 °C
